Reference: PMC12873548, “D-amino acid substitution and cyclization enhance the stability and antimicrobial activity of arginine-rich peptides” (Microbiology, 2026)
Converted amounts (≈) assume the structure as drawn. Residues, ends and D or L forms follow the SMILES beside them.

Key:
[1] = Stability in human serum by LC-MS; assay type: in vitro ADME; conditions: human serum (20% and 50%), 24 h, 37 °C; read-out LC-MS (ESI)
Description: (§1) The antimicrobial activity and structural stability of arginine-rich peptides were evaluated in the presence of human serum (20% and 50 %) and 5 µM Sequencing Grade Modified Trypsin (SGMT, Promega). Briefly, fresh human blood was collected in EDTA tubes and allowed to clot at room temperature for 1 h. Serum was then collected following centrifugation at 2,000 r.p.m. for 10 min at 4 °C. Peptides were incubated with 20%, 50% human serum and 5 µM SGMT in 50 mM Tris-HCl buffer (1 mM CaCl₂, pH 7.6) for 24 h at 37 °C. After the incubation period, the solutions were further incubated with E. coli (ATCC 25922 and O157:H7), P. aeruginosa (PA01, NCTC13437) and S. aureus (ATCC12600), and the MIC was assessed as described in the ‘Antibacterial assessment’ section. Additionally, the samples were analysed using electrospray ionization MS to monitor structural changes based on the molecular weight of the peptides.

E. coli = assay: Live/dead SYTO 9/PI fluorescence imaging; assay type: cell-based, Escherichia coli; conditions: mid-log phase E. coli, 2× MIC; red = damaged membranes
S. aureus (12600) = assay type: cell-based, Staphylococcus aureus
Description: (§2) The MIC of arginine-based peptides was assessed using the microbroth dilution approach. Our in vitro screening included a panel of Gram-negative bacteria, Escherichia coli (ATCC 25922 and enterohaemorrhagic O157:H7) and Pseudomonas aeruginosa (PA01 and the drug-resistant strain NCTC 13437), and Gram-positive bacteria (Staphylococcus aureus ATCC 12600). Five-millilitre overnight cultures in Lysogeny broth, prepared from single isolated colonies, were diluted to 5×10^6 c.f.u. ml^−1 mid-log phase in Mueller–Hinton (MH) broth. Next, peptide concentrations (0 to 1 mM) were serially diluted twofold in 96-well plates and incubated overnight at 37 °C with the tested bacterial strains. In each case, the MIC was determined as the lowest peptide concentration at which no detectable bacterial growth was observed, employing an absorbance-based assay using a Tecan Spark® multimode plate reader. Subsequently, 10 µl aliquots from each peptide dilution were transferred to MH agar (1.5%) plates to determine the minimum bactericidal concentration (MBC) which was assessed by establishing at which concentration no visible growth of bacteria (assessed via colony formation) on the plate was observed.
as §1

P. aeruginosa (PA01) [2] = assay type: cell-based, Pseudomonas aeruginosa; conditions: P. aeruginosa PA01
Description: as §2

[3] = system: P. aeruginosa (NCTC13437); assay type: cell-based, Pseudomonas aeruginosa; conditions: P. aeruginosa NCTC13437 (drug-resistant); 10 µl aliquots plated on MH agar, no visible colonies
Description: as §2

P. aeruginosa (PA01) [4] = assay type: cell-based, Pseudomonas aeruginosa
Description: as §2, §1

S. aureus ATCC 12600 = assay: Membrane integrity, PI uptake; assay type: cell-based, Staphylococcus aureus; conditions: S. aureus ATCC 12600, 5 µg ml−1 PI, 1 h
Description: Propidium iodide (PI) uptake was used to assess the permeabilization of the bacterial membrane upon incubation with peptides. E. coli and S. aureus cells, adjusted to an OD600 of 0.5, were placed into a 96-well plate containing 5 mM HEPES buffer (pH 7.4, supplemented with 5 mM glucose) and incubated with 5 µg ml^−1 PI for 15 min. Afterwards, different peptide concentrations were added, and PI uptake was rapidly measured every 10 min over a 1 h period using a Tecan Spark® microplate reader (λex=515 nm, λem=620 nm).

S. aureus (ATCC12600) = assay type: cell-based, Staphylococcus aureus; conditions: S. aureus ATCC12600
Description: as §2

[5] = system: Gram-positive and Gram-negative bacteria; assay type: cell-based; conditions: span of MIC and MBC against both Gram-positive and Gram-negative bacteria, Table 2
Description: as §2

P. aeruginosa (PA01) [6] = assay: Inhibition of biofilm formation, crystal violet; assay type: cell-based, Pseudomonas aeruginosa; conditions: P. aeruginosa PA01, M63 medium, peptides 0 to 500 µM, 24 h, 0.1% CV
Description: Arginine-rich peptides were evaluated for their ability to inhibit biofilm formation of P. aeruginosa (PA01) cells. To assess this, the procedure described in the ‘Antibacterial assessment’ section for determining the MIC was adapted using M63 media (supplemented with 1 mM MgSO4 and 23 µM L-arginine). After 24 h of exposure to peptides (0 to 1 mM), flat-bottom 96-well plates were washed twice with PBS to remove any non-adherent cells. The remaining biofilm was stained with 0.1% crystal violet (CV) for 30 min at room temperature. Subsequently, the plates were washed three times to remove excess dye and left to dry overnight at room temperature. The following day, stained biofilms were solubilized using 30% glacial acetic acid, and absorbance was measured at 550 nm using a microplate reader. Biofilm inhibition was expressed as a percentage relative to control bacterial cells treated with PBS.

S. aureus = assay: Intracellular ROS, DCFH-DA; assay type: cell-based, Staphylococcus aureus; conditions: peptides at MIC, 1/2× MIC, 1/4× MIC, 4 h, 37 °C
Description: Total reactive oxygen species (ROS) was measured using an oxidation-sensitive fluorescent dye, 2′,7′-dichlorodihydrofluorescein diacetate (DCFH-DA). For this assay, E. coli and S. aureus cultures were adjusted to an OD600 of 0.3 in MH broth and exposed to peptides at MIC, 1/2× MIC and 1/4× MIC, or to positive control (5 mM H2O2) for 4 h at 37 °C. Cells were centrifuged at 4,000 r.p.m. for 10 min at 4 °C and resuspended in PBS containing 10 µM DCFH-DA. The suspension was incubated under the same conditions for 30 min. Finally, cells were washed twice with PBS, and 150 µl aliquots were transferred to 96-well plates. Oxidized DCF products were detected using a Tecan Spark® microplate reader with excitation at 485 nm and emission at 530 nm. Additionally, 10 µl of E. coli cells incubated with D-R4F4 at MIC, 1/2×MIC and 1/4×MIC was collected for imaging using an All-in-One Fluorescence Microscope (Keyence, Japan).

[7] = control without serum or trypsin
[8] = peptide incubated with 5 µM SGMT trypsin in 50 mM Tris-HCl, 1 mM CaCl2, pH 7.6, 24 h at 37 °C before MIC
[9] = peptide incubated with 20% human serum 24 h at 37 °C before MIC
[10] = peptide incubated with 50% human serum 24 h at 37 °C before MIC
[11] = 10 µl aliquots plated on MH agar, no visible colonies
[12] = MH broth, 5×10^6 cells, 24 h, 37 °C, absorbance 600 nm, triplicate

Structure (SMILES): N=C(N)NCCC[C@@H]1NC(=O)[C@H](CCCNC(=N)N)NC(=O)[C@H](CCCNC(=N)N)NC(=O)[C@H](Cc2ccccc2)NC(=O)[C@H](Cc2ccccc2)NC(=O)[C@H](Cc2ccccc2)NC(=O)[C@H](Cc2ccccc2)NC(=O)[C@H](CCCNC(=N)N)NC1=O [CP-R4F4] (cyclo(RRRRFFFF))
- Stability with serum proteases (LC chromatogram and mass spectrum) [1]: appeared at the same retention time in both the absence and presence of proteases
- Membrane damage, live/dead SYTO 9/PI staining (E. coli): high presence of red-stained cells indicative of damaged membranes
- MIC, Control (S. aureus (12600); [7]): 62.5 µM (≈ 75.8 µg/mL)
- MIC, Trypsin (S. aureus (12600); [8]): 62.5 µM (≈ 75.8 µg/mL)
- MIC, 20% human serum (S. aureus (12600); [9]): 62.5 µM (≈ 75.8 µg/mL)
- MIC, 50% human serum (S. aureus (12600); [10]): 250 µM (≈ 303 µg/mL)
- MBC (P. aeruginosa (PA01) [2]; [11]): 31.2 µM (≈ 37.9 µg/mL)
- MIC (P. aeruginosa (PA01) [2]; [12]): 31.2 µM (≈ 37.9 µg/mL)
- MBC [3]: 250 µM (≈ 303 µg/mL)
- MIC, Control (P. aeruginosa (PA01) [4]; [7]): 31.25 µM (≈ 37.9 µg/mL)
- MIC, Trypsin (P. aeruginosa (PA01) [4]; [8]): 31.25 µM (≈ 37.9 µg/mL)
- MIC, 20% human serum (P. aeruginosa (PA01) [4]; [9]): 31.25 µM (≈ 37.9 µg/mL)
- MIC, 50% human serum (P. aeruginosa (PA01) [4]; [10]): 125 µM (≈ 152 µg/mL)
- PI uptake, membrane integrity (S. aureus ATCC 12600): membrane-disruptive activity
- MBC (S. aureus (ATCC12600); [11]): 125 µM (≈ 152 µg/mL)
- MIC (S. aureus (ATCC12600); [12]): 62.5 µM (≈ 75.8 µg/mL)
- MIC and MBC values over all tested strains [5]: 15.62 to 250 µM
- Biofilm formation (biomass, crystal violet) (P. aeruginosa (PA01) [6]): lowest levels of biofilm formation at the lower concentrations
- Intracellular ROS levels (S. aureus): highest modulation of ROS levels
